Results on three compounds are retold here after patent US20250249003A1, “COMBINATIONS OF KRAS G12D INHIBITORS WITH IRINOTECAN AND RELATED METHODS OF TREATMENT” (MIRATI THERAPEUTICS, INC., priority 2021, published 2025).

For data set [1], the target named is T1, CES2 (Homo sapiens, UniProt O00748).
T1 sequence (O00748 27-559): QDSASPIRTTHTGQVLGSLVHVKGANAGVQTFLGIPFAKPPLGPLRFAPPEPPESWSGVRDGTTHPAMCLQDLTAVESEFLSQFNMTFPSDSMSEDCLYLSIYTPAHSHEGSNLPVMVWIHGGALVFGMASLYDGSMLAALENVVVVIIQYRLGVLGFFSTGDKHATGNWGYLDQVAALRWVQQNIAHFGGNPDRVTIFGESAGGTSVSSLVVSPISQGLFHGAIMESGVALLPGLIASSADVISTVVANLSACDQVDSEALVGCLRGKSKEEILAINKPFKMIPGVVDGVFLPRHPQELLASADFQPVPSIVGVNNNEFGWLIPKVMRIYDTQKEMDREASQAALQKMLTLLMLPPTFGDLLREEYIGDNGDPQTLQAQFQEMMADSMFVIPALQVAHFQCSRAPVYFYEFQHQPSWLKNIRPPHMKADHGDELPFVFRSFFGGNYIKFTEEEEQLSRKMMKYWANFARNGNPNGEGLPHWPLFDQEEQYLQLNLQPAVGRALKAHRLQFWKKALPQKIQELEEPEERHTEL
The note with it: higher affinity than CES1; cited from earlier work.

The target of data set [2] is butyrylcholinesterase (hBChE) (Homo sapiens, UniProt P06276). The note with it: higher activity than CES; cited from earlier work.
The conditions of data set [3]: cited from earlier work.
Data set [4] concerns Panc 02.03 cells. Nature of the data set: Panc 02.03 pancreatic cancer xenograft, average tumor volumes in nude/nude mice. It is filed as in vivo. The note with it: single agent, 30 mg/kg i.p. BID 2x/week; day 22. How it is done:
Immunocompromised nude/nude mice are inoculated in the right hind flank with cells harboring a KRas G12D mutation. […] The first group is administered vehicle only. […] Tumor volumes are measured using a caliper every two-three days and tumor volumes are calculated by the formula: […].

Structures can show the parent of a compound that is named as a salt.

Chain of butyrylcholinesterase (hBChE) (P06276 29-602): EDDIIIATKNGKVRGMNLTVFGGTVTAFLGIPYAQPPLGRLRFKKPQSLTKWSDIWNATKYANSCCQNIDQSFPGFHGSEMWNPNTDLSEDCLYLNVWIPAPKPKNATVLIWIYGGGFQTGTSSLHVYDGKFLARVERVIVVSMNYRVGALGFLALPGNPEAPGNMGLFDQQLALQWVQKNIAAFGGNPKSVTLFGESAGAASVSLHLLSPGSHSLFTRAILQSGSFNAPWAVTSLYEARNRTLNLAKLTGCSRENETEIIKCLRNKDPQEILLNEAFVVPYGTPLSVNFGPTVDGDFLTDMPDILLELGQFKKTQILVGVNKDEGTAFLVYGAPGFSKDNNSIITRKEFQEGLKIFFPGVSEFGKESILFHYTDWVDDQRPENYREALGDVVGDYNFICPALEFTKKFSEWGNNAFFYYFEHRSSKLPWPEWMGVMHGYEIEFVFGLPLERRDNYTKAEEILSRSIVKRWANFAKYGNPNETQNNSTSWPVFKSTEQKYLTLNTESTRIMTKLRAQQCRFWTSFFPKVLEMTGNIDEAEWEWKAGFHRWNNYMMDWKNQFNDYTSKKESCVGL

With `CCc1c2c(nc3ccc(OC(=O)N4CCC(N5CCCCC5)CC4)cc13)-c1cc3c(c(=O)n1C2)COC(=O)[C@]3(O)CC` [Irinotecan, (S)-4,11-diethyl-3,4,12,14-tetrahydro-4-hydroxy-3,14-dioxo-1H-pyrano[3′,4′:6,7]indolizino[1,2-β]quinolin-9-yl ester[1,4′-bipiperidine]-1′-carboxylic acid trihydrate monohydrochloride], the “affinity for irinotecan, CES2 relative to CES1” value in data set [1] was 12.5 fold. The “activity for irinotecan, butyrylcholinesterase relative to CES” value in data set [2] is 6 fold. In addition, in data set [3] (in vivo), the “fraction of pro-drug hydrolyzed into active metabolite SN-38” value is 2-5%.
The compound `C#Cc1c(F)ccc2cc(O)cc(-c3ncc4c(N5C[C@H]6CC[C@@H](C5)N6)nc(OC[C@@]56CCCN5C[C@H](F)C6)nc4c3F)c12` [MRTX1133, 4-(4-((1R,5S)-3,8-diazabicyclo[3.2.1]octan-3-yl)-8-fluoro-2-(((2R,7aS)-2-fluorohexahydro-1Hpyrrolizin-7a-yl)methoxy)pyrido[4,3-d]pyrimidin-7-yl)-5-ethynyl-6-fluoronaphthalen-2-ol] yielded a tumor growth in data set [4] of 72%.
For `CCc1c2c(nc3ccc(O)cc13)-c1cc3c(c(=O)n1C2)COC(=O)[C@]3(O)CC` [SN-38, ethyl-10-hydroxy-camptothecin], the “time to peak plasma concentration” value in data set [3] (after infusion) was no more than 2 h. Moreover, the distribution half-life entry in data set [3] (in vivo) is given as “approximately 8 min”.
